The numbers were not newly measured in patent US20250319089A1, “STABLE LYOPHILISATES COMPRISING 5,10-METHYLENE-(6R)-TETRAHYDROFOLIC ACID” (Merck Patent GMBH, priority 2022, published 2025), which cites them from elsewhere.

In the case of `Nc1nc2c(c(=O)[nH]1)N1CN(c3ccc(C(=O)N[C@@H](CCC(=O)O)C(=O)O)cc3)C[C@H]1CN2` [5,10-methylene-(6R,S)-tetrahydrofolic acid], under “24 hours following dissolution in water”, the “purity after 24 hours compared to the starting purity” value is given as 44.9%. The “purity after 7 hours” value (re-constituted lyophilizate, 7 hours) is 84%. Also, where the note is “re-constituted lyophilizate, linear regression”, the “loss of purity per hour (degradation rate)” value is given as 2.3 % purity per hour.
